Data: US20240057595A1, “INSECT REPELLENT COMPOSITIONS” (Manus Bio Inc., priority 2020, published 2024)

Test system: Aedes aegypti UGAL mosquito strain (adult female)
Assay: Mortality assay on treated filter paper
Assay type: in vivo
Settings: 0.5% solution; within the first 20 minutes; FIG. 4
Procedure: A mortality assay was employed to evaluate mosquito mortality in response to exposure to eleven different treatments including water, a series of NKT dilutions, and 0.5% permethrin. The Aedes aegypti UGAL mosquito strain (adult female) was used in this example.
The experiments were conducted in a well-lit, temperature- and humidity-controlled room. The room was 22-24° C. with humidity at 40-45%. To conduct these experiments, each treatment had four replicates under the same conditions. A filter paper, 10 cm in diameter, was treated with 340 μl of an experimental or control solution using a standardized spray bottle (113.3 μl/spray) that was held approximately 5 cm away from the paper. The treated filter paper was placed into an open petri dish with a diameter of 10 cm. […] Female mosquitoes were then anesthetized on ice for five minutes. After 60 minutes, 10 ice-anesthetized adult female mosquitoes were transferred onto the treated paper using soft featherweight forceps. The petri dish lid was placed on top, and the mosquitoes were given two minutes to revive before the timer was started. Mosquitoes were then monitored every five minutes. Mosquitoes on their back were considered knocked down and marked as deceased in these experiments. […] Log-rank (Mantel-Cox) test was performed for comparison of survival curves.

## CC1(C)C(C=C(Cl)Cl)C1C(=O)OCc1cccc(Oc2ccccc2)c1 (stereo not shown) [permethrin]
  knockdown effect: strong immediate knockdown effect
